Reference: patent US7989460B2, “Quinazoline derivatives as angiogenesis inhibitors” (AstraZeneca AB, priority 2003, dated 2011)

Tests used:
[1] = target: T1, KDR (Homo sapiens, UniProt P35968); experiment: In vitro receptor tyrosine kinase inhibition test (a), enzyme assay against KDR; assay type: biochemical; conditions: KDR cytoplasmic domain
T1 construct: made in house; host or cells: insect cells (Spodoptera frugiperda Sf21, baculovirus)
Description: (a) In Vitro Receptor Tyrosine Kinase Inhibition Test
This assay determines the ability of a test compound to inhibit tyrosine kinase activity. DNA encoding VEGF, FGF or EGF receptor cytoplasmic domains may be obtained by total gene synthesis (Edwards M, International Biotechnology Lab 5(3), 19-25, 1987) or by cloning. These may then be expressed in a suitable expression system to obtain polypeptide with tyrosine kinase activity. […] In the case of the VEGF receptor Flt-1 (Genbank accession number X51602), a 1.7 kb DNA fragment encoding most of the cytoplasmic domain, commencing with methionine 783 and including the termination codon, described by Shibuya et al (Oncogene, 1990, 5: 519-524), was isolated from cDNA and cloned into a baculovirus transplacement vector (for example pAcYM1 (see The Baculovirus Expression System: A Laboratory Guide, L. A. King and R. D. Possee, Chapman and Hall, 1992) or pAc360 or pBlueBacHis (available from Invitrogen Corporation)). This recombinant construct was co-transfected into insect cells (for example Spodoptera frugiperda 21(5f21)) with viral DNA (eg Pharmingen BaculoGold) to prepare recombinant baculovirus. […]

[2] = target: T2, human ether-a-go-go-related-gene (hERG)-encoded potassium channel (Homo sapiens, UniProt Q12809); experiment: hERG-encoded potassium channel inhibition test (d); assay type: cell-based; conditions: HEK cells expressing hERG-encoded channel, tail current, whole cell patch clamp
T2 construct: expressed in transfected cells; host or cells: Human embryonic kidney (HEK) cells
Experimental: d) hERG-encoded Potassium Channel Inhibition Test
This assay determines the ability of a test compound to inhibit the tail current flowing through the human ether-a-go-go-related-gene (hERG)-encoded potassium channel.
Human embryonic kidney (HEK) cells expressing the hERG-encoded channel were grown in Minimum Essential Medium Eagle (EMEM; Sigma-Aldrich catalogue number M2279), supplemented with 10% Foetal Calf Serum (Labtech International; product number 4-101-500), 10% M1 serum-free supplement (Egg Technologies; product number 70916) and 0.4 mg/ml Geneticin G418 (Sigma-Aldrich; catalogue number G7034). […]
For each cell recorded, a glass coverslip containing the cells was placed at the bottom of a Perspex chamber containing bath solution (see below) at ambient temperature ([…]). […]
The cell was recorded in the whole cell configuration of the patch clamp technique. […]
The amplitude of the hERG-encoded potassium channel tail current following the step from +40 mV to −50 mV was recorded on-line by Clampex software (Axon Instruments). […]
The effect of each concentration of test compound was quantified by expressing the tail current amplitude in the presence of a given concentration of test compound as a percentage of that in the presence of vehicle. […]

T2 sequence (Q12809 whole entry): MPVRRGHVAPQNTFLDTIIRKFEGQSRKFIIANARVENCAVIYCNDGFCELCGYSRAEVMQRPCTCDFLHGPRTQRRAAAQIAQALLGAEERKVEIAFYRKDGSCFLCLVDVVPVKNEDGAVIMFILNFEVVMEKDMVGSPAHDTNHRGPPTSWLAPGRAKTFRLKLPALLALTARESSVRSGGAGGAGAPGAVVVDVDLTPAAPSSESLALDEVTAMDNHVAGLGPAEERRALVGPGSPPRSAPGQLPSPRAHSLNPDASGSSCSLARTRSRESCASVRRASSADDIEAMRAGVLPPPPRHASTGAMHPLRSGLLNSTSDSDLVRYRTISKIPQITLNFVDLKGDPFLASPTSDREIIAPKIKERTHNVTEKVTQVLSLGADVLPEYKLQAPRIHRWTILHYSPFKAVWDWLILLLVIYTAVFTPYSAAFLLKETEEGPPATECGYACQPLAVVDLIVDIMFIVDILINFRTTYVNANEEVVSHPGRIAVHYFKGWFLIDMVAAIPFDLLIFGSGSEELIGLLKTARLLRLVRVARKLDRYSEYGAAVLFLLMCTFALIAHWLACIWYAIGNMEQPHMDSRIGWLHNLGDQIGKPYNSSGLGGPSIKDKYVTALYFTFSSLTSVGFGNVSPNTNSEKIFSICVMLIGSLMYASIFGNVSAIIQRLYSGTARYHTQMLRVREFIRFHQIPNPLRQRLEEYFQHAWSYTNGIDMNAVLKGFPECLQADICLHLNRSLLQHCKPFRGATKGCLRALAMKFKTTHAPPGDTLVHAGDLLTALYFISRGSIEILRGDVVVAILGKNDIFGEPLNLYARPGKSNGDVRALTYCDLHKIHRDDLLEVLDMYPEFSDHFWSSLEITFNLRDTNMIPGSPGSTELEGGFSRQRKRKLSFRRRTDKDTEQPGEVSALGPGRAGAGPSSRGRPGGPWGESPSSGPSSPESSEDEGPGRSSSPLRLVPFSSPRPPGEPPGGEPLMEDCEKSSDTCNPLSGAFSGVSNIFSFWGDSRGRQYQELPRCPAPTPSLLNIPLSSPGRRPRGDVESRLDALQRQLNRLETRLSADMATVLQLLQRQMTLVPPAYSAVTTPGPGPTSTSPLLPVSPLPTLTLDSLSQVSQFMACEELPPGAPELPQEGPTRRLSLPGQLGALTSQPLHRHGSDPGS
T1 sequence (P35968 786-1356 limits assumed): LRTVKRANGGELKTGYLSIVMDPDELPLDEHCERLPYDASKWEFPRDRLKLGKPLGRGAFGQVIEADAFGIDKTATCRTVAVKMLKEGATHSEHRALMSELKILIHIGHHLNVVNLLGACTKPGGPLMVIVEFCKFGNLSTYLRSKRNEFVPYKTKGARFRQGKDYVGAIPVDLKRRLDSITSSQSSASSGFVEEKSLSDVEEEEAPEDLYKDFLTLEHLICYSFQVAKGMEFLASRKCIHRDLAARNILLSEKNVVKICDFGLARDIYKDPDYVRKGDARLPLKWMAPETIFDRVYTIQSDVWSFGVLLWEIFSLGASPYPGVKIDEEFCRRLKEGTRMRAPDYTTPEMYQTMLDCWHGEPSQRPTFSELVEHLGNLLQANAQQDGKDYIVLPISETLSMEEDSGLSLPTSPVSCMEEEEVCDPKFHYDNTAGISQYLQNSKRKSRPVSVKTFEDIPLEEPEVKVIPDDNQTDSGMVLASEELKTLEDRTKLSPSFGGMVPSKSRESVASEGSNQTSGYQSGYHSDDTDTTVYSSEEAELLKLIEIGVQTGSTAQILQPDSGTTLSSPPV

IC50 [1]: 0.104 µM
Structure (SMILES): COc1cc2c(Oc3ccc4[nH]c(C)c(C)c4c3)ncnc2cc1OCCN1CCN(CC(C)=O)CC1 [Example 11, 7-{2-[4-(acetylmethyl)piperazin-1-yl]ethoxy}-4-[(2,3-dimethyl-1H-indol-5-yl)oxy]-6-methoxyquinazoline]
IC50 [2]: 10.1 µM
